From patent US20240082296A1, “TREATMENT OF MUSCLE ATROPHY USING DEXTRAN SULFATE” (TX MEDIC AB, priority 2020, published 2024)

Tested on: human patients suffering from ALS
Test: ALSAQ-40 ADL and PM sub-scores in ALS patients (Example 1)
Assay type: in vivo
Method: Dextran sulfate (Tikomed AB, Viken, Sweden, WO 2016/076780) was administered at 2 mg/kg by […] subcutaneous injection once a week for ten weeks to 8 human patients suffering from ALS.
ALSAQ-40 was assessed pre-treatment and weekly thereafter for the 10 treatment weeks and for the visits at the follow-up period.
The ALSAQ-40 sub-scores entitled ‘Activities of Daily Living/Independence’ (ADL) and ‘Physical Mobility’ (PM) reflect the patients' view of their level of physical activity and independence. A falling score reflects improved physical activity.

dextran sulfate
decline of ALSAQ-40 ADL sub-score (after 10 weeks of treatment): 18.6% | decline of ALSAQ-40 PM sub-score (after 10 weeks of treatment): 16% | ALSAQ-40 PM sub-score (after 10 weeks, pre-treatment 27.2±22.2): 22.7±20.2 | ALSAQ-40 ADL sub-score (after 10 weeks, pre-treatment 58.9±21.4, p<0.05, falling score = improved): 44.4±24.7
